Data published in ChEMBL document CHEMBL4823282, “Novel Broad-Spectrum Antimicrobial Peptide Derived from Anoplin and Its Activity on Bacterial Pneumonia in Mice” (J Med Chem, 2021).
≈ marks a conversion by molar mass, not a printed value. Where a SMILES comes first, the peptide text is derived from it. Bridges are numbered along the chain shown (N, C = ends). [ ]: non-standard residue; d: D form. The star is where a group is joined. Ileψ(thiazoline)Cys = CC[C@H](C)[C@H](N)C1=N[C@H](C(=O)*)CS1; dOrn = NCCC[C@@H](N)C(=O)O

How the values were obtained:
[1] = system: Bacillus subtilis; assay: Antibacterial activity against Bacillus subtilis ATCC 23857 incubated for 18 hrs by CLSI based broth dilution method; type: functional
[2] = system: Erythrocyte; assay: Hemolytic activity in BALB/C mouse erythrocytes incubated for 1 hr by absorbance method; type: ADME, cell-based
[3] = Cytotoxicity against human glomerular mesangial cells incubated for 12 hrs by MTT assay; type: cell-based; conditions: Glomerular mesangial cell
[4] = system: Pseudomonas aeruginosa; assay: Antibacterial activity against Pseudomonas aeruginosa ATCC 27853 incubated for 18 hrs by CLSI based broth dilution method; type: functional
[5] = system: Bacteria; assay: Antibacterial activity against bacteria incubated for 18 hrs by CLSI based broth dilution method; type: functional
[6] = system: Escherichia coli; assay: Antibacterial activity against Escherichia coli ATCC 25922 incubated for 18 hrs by CLSI based broth dilution method; type: functional
[7] = system: Bacteria; assay: Antibacterial activity against Gram-negative bacteria incubated for 18 hrs by CLSI based broth dilution method; type: functional
[8] = system: Bacteria; assay: Antibacterial activity against Gram-positive bacteria incubated for 18 hrs by CLSI based broth dilution method; type: functional
[9] = system: Fungi; assay: Antibacterial activity against fungi incubated for 18 hrs by CLSI based broth dilution method; type: functional
[10] = system: Staphylococcus epidermidis; assay: Antibacterial activity against Staphylococcus epidermidis ATCC 12228 incubated for 18 hrs by CLSI based broth dilution method; type: functional
[11] = system: Enterococcus faecalis; assay: Antibacterial activity against Enterococcus faecalis ATCC 29212 incubated for 18 hrs by CLSI based broth dilution method; type: functional
[12] = Selectivity ratio of MHC10 for BALB/C mouse erythrocytes to MIC for gram positive bacteria; type: toxicity
[13] = Selectivity ratio of MHC10 for BALB/C mouse erythrocytes to MIC for fungi; type: toxicity
[14] = system: Staphylococcus aureus; assay: Antibacterial activity against Staphylococcus aureus ATCC 25923 incubated for 18 hrs by CLSI based broth dilution method; type: functional
[15] = Selectivity ratio of MHC10 for BALB/C mouse erythrocytes to MIC for bacteria; type: toxicity
[16] = Selectivity ratio of MHC10 for BALB/C mouse erythrocytes to MIC for gram-negative bacteria; type: toxicity
[17] = system: Acinetobacter baumannii; assay: Antibacterial activity against Acinetobacter baumannii ATCC 19606 incubated for 18 hrs by CLSI based broth dilution method; type: functional; conditions: ATCC 19606 = CIP 70.34 = JCM 6841
[18] = system: Klebsiella pneumoniae; assay: Antibacterial activity against Klebsiella pneumoniae ATCC 700603 incubated for 18 hrs by CLSI based broth dilution method; type: functional

SMILES | MIC [1] | MIC [4] | MIC [5] | MIC [6] | MIC [7] | MIC [8] | MIC [9] | MIC [10] | MIC [11] | MIC [14] | MIC [17] | MIC [18] | MHC10 [2] | IC50 [3] | selectivity ratio at 18 h [12] | selectivity ratio [13] | selectivity ratio [15] | selectivity ratio [16]
C[C@@H](O)[C@H](NC(=O)[C@H](CCCCN)NC(=O)[C@H](Cc1c[nH]c2ccccc12)NC(=O)[C@H](CCCNC(=N)N)NC(=O)[C@H](CCCCN)NC(=O)[C@H](Cc1c[nH]c2ccccc12)NC(=O)[C@H](Cc1c[nH]c2ccccc12)NC(=O)CN)C(=O)N[C@@H](Cc1c[nH]c2ccccc12)C(=O)N[C@@H](Cc1c[nH]c2ccccc12)C(N)=O (H-GWWKRWKTWW-NH2) | 4 µM (≈ 6.08 µg/mL) | 16 µM (≈ 24.3 µg/mL) | 9.51 µM (≈ 14.4 µg/mL) | 16 µM (≈ 24.3 µg/mL) | 13.5 µM (≈ 20.5 µg/mL) | 6.7 µM (≈ 10.2 µg/mL) | 9.51 µM (≈ 14.4 µg/mL) | 4 µM (≈ 6.08 µg/mL) | 16 µM (≈ 24.3 µg/mL) | 8 µM (≈ 12.2 µg/mL) | 16 µM (≈ 24.3 µg/mL) | 16 µM (≈ 24.3 µg/mL) | 40.79 µM | 49.5 µM | 6.09 | 4.29 | 4.29 | 3.02
CC(C)C[C@H](NC(=O)[C@H](C)NC(=O)[C@@H](NC(=O)[C@H](CCCCN)NC(=O)[C@H](C)NC(=O)[C@H](CCCNC(=N)N)NC(=O)[C@H](CCCCN)NC(=O)[C@H](CC(C)C)NC(=O)[C@H](C)NC(=O)CN)[C@@H](C)O)C(N)=O (H-GALKRAKTAL-NH2) | ≥ 512 µM | ≥ 512 µM | ≥ 512 µM | ≥ 512 µM | ≥ 512 µM | ≥ 512 µM | ≥ 512 µM | ≥ 512 µM | ≥ 512 µM | ≥ 512 µM | ≥ 512 µM | ≥ 512 µM | >= 512 uM | ≥ 512 µM | 1 | 1 | 1 | 1
CC(C)C[C@H](NC(=O)[C@H](C)NC(=O)[C@@H](NC(=O)[C@H](CCCCN)NC(=O)[C@H](C)NC(=O)[C@H](CCCNC(=N)N)NC(=O)[C@H](CCCCN)NC(=O)[C@H](C)NC(=O)[C@H](C)NC(=O)CN)[C@@H](C)O)C(N)=O (H-GAAKRAKTAL-NH2) | ≥ 512 µM | ≥ 512 µM | ≥ 512 µM | ≥ 512 µM | ≥ 512 µM | ≥ 512 µM | ≥ 512 µM | ≥ 512 µM | ≥ 512 µM | ≥ 512 µM | ≥ 512 µM | ≥ 512 µM | >= 512 uM | ≥ 512 µM | 1 | 1 | 1 | 1
CO/N=C(\C(=O)N[C@@H]1C(=O)N2C(C(=O)O)=C(COC(C)=O)CS[C@H]12)c1csc(N)n1 [CEFOTAXIME] | < 1 µM | < 1 µM |  | < 1 µM |  |  |  | 2 µM (≈ 0.911 µg/mL) | ≥ 512 µM | 2 µM (≈ 0.911 µg/mL) | 32 µM (≈ 14.6 µg/mL) | 8 µM (≈ 3.64 µg/mL) |  |  |  |  |  | 
CC[C@H](C)[C@H](N)C1=N[C@H](C(=O)N[C@@H](CC(C)C)C(=O)N[C@H](CCC(=O)O)C(=O)N[C@H](C(=O)N[C@H]2CCCCNC(=O)[C@H](CC(N)=O)NC(=O)[C@@H](CC(=O)O)NC(=O)[C@H](Cc3cnc[nH]3)NC(=O)[C@@H](Cc3ccccc3)NC(=O)[C@H]([C@@H](C)CC)NC(=O)[C@@H](CCCN)NC2=O)[C@@H](C)CC)CS1 [BACITRACIN] ({Ileψ(thiazoline)Cys}-L[dE]IK[dOrn]I[dF]H[dD]N; lactam 4-C) | ≥ 512 µM | ≥ 512 µM |  | ≥ 512 µM |  |  |  | 8 µM (≈ 11.4 µg/mL) | 32 µM (≈ 45.5 µg/mL) | 16 µM (≈ 22.8 µg/mL) | ≥ 128 µM | ≥ 512 µM |  |  |  |  |  | 

The next lines start with results.

MIC [1] | MIC [4] | MIC [5] | MIC [6] | MIC [7] | MIC [8] | MIC [9] | MIC [10] | MIC [11] | MIC [14] | MIC [17] | MIC [18] | SMILES | MHC10 [2] | IC50 [3] | selectivity ratio at 18 h [12] | selectivity ratio [13] | selectivity ratio [15] | selectivity ratio [16]
4 µM (≈ 6.92 µg/mL) | 32 µM (≈ 55.3 µg/mL) | 17.4 µM (≈ 30.2 µg/mL) | 32 µM (≈ 55.3 µg/mL) | 22.6 µM (≈ 39.1 µg/mL) | 13.5 µM (≈ 23.3 µg/mL) | 17.4 µM (≈ 30.2 µg/mL) | 32 µM (≈ 55.3 µg/mL) | 32 µM (≈ 55.3 µg/mL) | 8 µM (≈ 13.8 µg/mL) | 128 µM (≈ 221 µg/mL) | 32 µM (≈ 55.3 µg/mL) | N=C(N)NCCC[C@H](NC(=O)[C@H](CCCNC(=N)N)NC(=O)[C@H](Cc1c[nH]c2ccccc12)NC(=O)[C@H](CCCNC(=N)N)NC(=O)[C@H](CCCNC(=N)N)NC(=O)[C@H](Cc1c[nH]c2ccccc12)NC(=O)[C@H](Cc1c[nH]c2ccccc12)NC(=O)[C@@H](N)CCCNC(=N)N)C(=O)N[C@@H](Cc1c[nH]c2ccccc12)C(=O)N[C@@H](Cc1c[nH]c2ccccc12)C(N)=O (H-RWWRRWRRWW-NH2) | 43.67 µM | 11.2 µM | 3.23 | 2.5 | 2.5 | 1.93
< 1 µM | < 1 µM |  | < 1 µM |  |  |  | < 1 µM | 4 µM (≈ 1.53 µg/mL) | < 1 µM | < 1 µM | < 1 µM | C[C@@H](O)[C@H]1C(=O)N2C(C(=O)O)=C(S[C@@H]3CN[C@H](C(=O)N(C)C)C3)[C@H](C)[C@H]12 [MEROPENEM] |  |  |  |  |  | 
< 1 µM | < 1 µM |  | < 1 µM |  |  |  | < 1 µM | < 1 µM | < 1 µM | < 1 µM | < 1 µM | C[C@@H](O)[C@H]1C(=O)N2C(C(=O)O)=C(SCCNC=N)C[C@H]12 [IMIPENEM ANHYDROUS] |  |  |  |  |  | 
< 1 µM | 64 µM (≈ 21.4 µg/mL) |  | 64 µM (≈ 21.4 µg/mL) |  |  |  | 16 µM (≈ 5.35 µg/mL) | 4 µM (≈ 1.34 µg/mL) | < 1 µM | 128 µM (≈ 42.8 µg/mL) | ≥ 512 µM | CC1(C)S[C@@H]2[C@H](NC(=O)Cc3ccccc3)C(=O)N2[C@H]1C(=O)O [PENICILLIN G] |  |  |  |  |  | 
≥ 512 µM | ≥ 512 µM | ≥ 512 µM | ≥ 512 µM | ≥ 512 µM | ≥ 512 µM | ≥ 512 µM | ≥ 512 µM | ≥ 512 µM | ≥ 512 µM | ≥ 512 µM | ≥ 512 µM | C[C@H](NC(=O)[C@H](C)NC(=O)[C@@H](NC(=O)[C@H](CCCCN)NC(=O)[C@H](C)NC(=O)[C@H](CCCNC(=N)N)NC(=O)[C@H](CCCCN)NC(=O)[C@H](C)NC(=O)[C@H](C)NC(=O)CN)[C@@H](C)O)C(N)=O (H-GAAKRAKTAA-NH2) | >= 512 uM | ≥ 512 µM | 1 | 1 | 1 | 1
2 µM (≈ 1.16 µg/mL) | 4 µM (≈ 2.33 µg/mL) |  | 4 µM (≈ 2.33 µg/mL) |  |  |  | 32 µM (≈ 18.6 µg/mL) | 16 µM (≈ 9.31 µg/mL) | < 1 µM | 2 µM (≈ 1.16 µg/mL) | < 1 µM | CN[C@@H]1[C@H](O[C@H]2[C@H](O[C@H]3[C@H](O)[C@@H](O)[C@H](N=C(N)N)[C@@H](O)[C@@H]3N=C(N)N)O[C@@H](C)[C@]2(O)C=O)O[C@@H](CO)[C@H](O)[C@H]1O [STREPTOMYCIN] |  |  |  |  |  | 
< 1 µM | 8 µM (≈ 3.88 µg/mL) |  | 8 µM (≈ 3.88 µg/mL) |  |  |  | < 1 µM | 8 µM (≈ 3.88 µg/mL) | < 1 µM | 4 µM (≈ 1.94 µg/mL) | 32 µM (≈ 15.5 µg/mL) | NC[C@H]1O[C@H](O[C@H]2[C@H](O)[C@@H](O[C@H]3O[C@H](CO)[C@@H](O)[C@H](N)[C@H]3O)[C@H](N)C[C@@H]2N)[C@H](O)[C@@H](O)[C@@H]1O [KANAMYCIN] |  |  |  |  |  | 
